The text below walks through data of patent US8378104B2 (OSI Pharmaceuticals, LLC, priority 2010, dated 2013).

pIC50: −log10 of the molar value. Structures can show the parent of a compound that is named as a salt. Where only a bound is given, the exact number is not on record here.

The target in the test is T1, TAK1-TAB1 fusion protein (Homo sapiens, UniProt O43318).
T1 construct: purchased Carna
T1 sequence (O43318 with tags, fused parts or gaps limits assumed): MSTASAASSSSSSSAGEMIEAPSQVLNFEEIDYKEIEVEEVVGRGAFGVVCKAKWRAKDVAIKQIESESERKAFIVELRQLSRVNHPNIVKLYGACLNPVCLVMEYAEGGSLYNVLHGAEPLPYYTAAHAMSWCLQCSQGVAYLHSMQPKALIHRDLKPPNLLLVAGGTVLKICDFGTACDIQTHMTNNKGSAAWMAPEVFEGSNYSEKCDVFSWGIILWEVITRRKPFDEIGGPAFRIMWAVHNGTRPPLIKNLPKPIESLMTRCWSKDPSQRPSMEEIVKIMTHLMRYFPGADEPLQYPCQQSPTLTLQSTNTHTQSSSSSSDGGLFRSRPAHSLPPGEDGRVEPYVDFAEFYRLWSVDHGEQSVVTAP
Nature of the test: TAK1 biochemical assay (AlphaScreen, GST-MAP2K7 substrate). The settings on record: TAK1-TAB1 fusion protein, GST-MAP2K7 substrate; read-out: mean TAK1 IC50 (Col. A). Background: In Alpha technology, singlet oxygen from a donor bead excites a nearby acceptor bead.
Consider `Nc1ncc(-c2cnn(C3CCNCC3)c2)c2cc(-c3ccc4[nH]cnc4c3)oc12` [Example 39, 2-(1H-benzimidazol-5-yl)-4-[1-(piperidin-4-yl)-1H-pyrazol-4-yl]furo[2,3-c]pyridine-7-amine], for which the pIC50 is 6.00 to 7.00.

`CC(C)Oc1cccc(/C=C/C(=O)N2CCC(n3cc(-c4cnc(N)c5oc(-c6cccc7cnsc67)cc45)cn3)CC2)c1` [Example 337, (E)-1-{4-[4-(7-amino-2-benzo[d]isothiazol-7-yl-furo[2,3-c]pyridin-4-yl)-pyrazol-1-yl]-piperidin-1-yl}-3-(3-isopropoxy-phenyl)-propenone]: the pIC50 is 5.00 to 6.00.

For the compound `CC(=O)N1CCC(n2cc(-c3cnc(N)c4oc(C5CCCCC5)cc34)cn2)CC1` [Example 152, 1-{4-[4-(7-amino-2-cyclohexylfuro[2,3-c]pyridin-4-yl)-1H-pyrazol-1-yl]piperidin-1-yl}ethanone], the pIC50 was 6.00 to 7.00.

Take `CC(=O)N1CCC(n2cc(-c3cnc(N)c4oc(-c5c(-c6ccccc6)sc6cnccc56)cc34)cn2)CC1` [Example 263, 1-(4-{4-[7-amino-2-(2-phenylthieno[2,3-c]pyridin-3-yl)furo[2,3-c]pyridin-4-yl]-1H-pyrazol-1-yl}piperidin-1-yl)ethanone trifluoroacetate]: the pIC50 is 6.00 to 7.00.

`CC(=O)N1CCC(n2cc(-c3cnc(N)c4oc(-c5ccc(COc6cccc7ccccc67)cc5)cc34)cn2)CC1` [Example 156, 1-{4-[4-(7-amino-2-{4-[(naphthalen-1-yloxy)methyl]phenyl}furo[2,3-c]pyridin-4-yl)-1H-pyrazol-1-yl]piperidin-1-yl}ethanone]: the pIC50 is under 5.00.

Consider `COCCOc1cccc(-c2cc3c(-c4cnn(C5CCN(C(C)=O)CC5)c4)cnc(N)c3o2)c1` [Example 200, 1-[4-(4-{7-amino-2-[3-(2-methoxyethoxy)phenyl]furo[2,3-c]pyridin-4-yl}-1H-pyrazol-1-yl)piperidin-1-yl]ethanone], for which the pIC50 was 5.00 to 6.00.

Regarding `Nc1ncc(-c2cnn(C3CCNCC3)c2)c2cc(-c3ccc4cc[nH]c4c3)oc12` [Example 29, 2-(1H-indol-6-yl)-4-[1-(piperidin-4-yl)-1H-pyrazol-4-yl]furo[2,3-c]pyridin-7-amine], the pIC50 was 5.00 to 6.00.

Regarding `Nc1ncc(-c2cnn(C3CCNCC3)c2)c2cc(-c3cccc4cn[nH]c34)oc12` [Example 45, 2-(1H-indazol-7-yl)-4-[1-(piperidin-4-yl)-1H-pyrazol-4-yl]furo[2,3-c]pyridin-7-amine], the pIC50 is 6.00 to 7.00.

As to `Nc1ncc(-c2cnn(C3CCNCC3)c2)c2c(Cl)c(-c3ccc4[nH]ccc4c3)oc12` [Example 14, 3-chloro-2-(1H-indol-5-yl)-4-[1-(piperidin-4-yl)-1H-pyrazol-4-yl]furo[2,3-c]pyridin-7-amine hydrochloride], the pIC50 is 5.00 to 6.00.

As to `CC(=O)N1CCC(n2cc(-c3cnc(N)c4oc(-c5cccc6ccncc56)cc34)cn2)CC1` [Example 190, 1-(4-{4-[7-amino-2-(isoquinolin-8-yl)furo[2,3-c]pyridin-4-yl]-1H-pyrazol-1-yl}piperidin-1-yl)ethanone], the pIC50 was 5.00 to 6.00.

In the case of `Cc1c(-c2cnc(N)c3oc(-c4csc5cnccc45)cc23)cnn1[C@H]1CC[C@H](O)CC1` [Example 305, 4-[4-(7-amino-2-thieno[2,3-c]pyridin-3-yl-furo[2,3-c]pyridin-4-yl)-5-methyl-pyrazol-1-yl]-cyclohexanol], the pIC50 was 5.00 to 6.00.

For the compound `CC(=O)Nc1ccccc1-c1cc2c(-c3cnn(C4CCN(C(C)=O)CC4)c3)cnc(N)c2o1` [Example 141, N-(2-{4-[1-(1-acetylpiperidin-4-yl)-1H-pyrazol-4-yl]-7-aminofuro[2,3-c]pyridin-2-yl}phenyl)acetamide], the pIC50 was under 5.00.

For `COc1cccc(COc2cccc(-c3cc4c(-c5cnn(C6CCN(C(C)=O)CC6)c5)cnc(N)c4o3)c2)c1` [Example 207, 1-{4-[4-(7-amino-2-{3-[(3-methoxybenzyl)oxy]phenyl}furo[2,3-c]pyridin-4-yl)-1H-pyrazol-1-yl]piperidin-1-yl}ethanone], the pIC50 is under 5.00.

For the compound `CC(=O)N1CCC(n2cc(-c3cnc(N)c4oc(-c5ccccc5CO)cc34)cn2)CC1` [Example 194, 1-[4-(4-{7-amino-2-[2-(hydroxymethyl)phenyl]furo[2,3-c]pyridin-4-yl}-1H-pyrazol-1-yl)piperidin-1-yl]ethanone], the pIC50 is 6.00 to 7.00.

Turning to `COCc1ccccc1-c1cc2c(-c3cnn(C4CCN(C(C)=O)CC4)c3)cnc(N)c2o1` [Example 195, 1-[4-(4-{7-amino-2-[2-(methoxymethyl)phenyl]furo[2,3-c]pyridin-4-yl}-1H-pyrazol-1-yl)piperidin-1-yl]ethanone], the pIC50 is 5.00 to 6.00.

As to `Cc1cc(-c2cnc(N)c3oc(-c4csc5cnccc45)cc23)cs1` [Example 393, 4-(5-methylthiophen-3-yl)-2-(thieno[2,3-c]pyridin-3-yl)furo[2,3-c]pyridin-7-amine trifluoroacetate], the pIC50 was 5.00 to 6.00.

As for `CCC(=O)N1CCC(n2cc(-c3cnc(N)c4oc(-c5cccc6ccsc56)cc34)cn2)CC1` [Example 58, 1-(4-{4-[7-amino-2-(1-benzothiophen-7-yl)furo[2,3-c]pyridin-4-yl]-1H-pyrazol-1-yl}piperidin-1-yl)propan-1-one], the pIC50 is 5.00 to 6.00.

For the compound `CCn1cc(-c2cnc(N)c3oc(-c4cccc5cnccc45)cc23)cn1` [Example 71, 4-(1-ethyl-1H-pyrazol-4-yl)-2-(isoquinolin-5-yl)furo[2,3-c]pyridin-7-amine], the pIC50 was 5.00 to 6.00.

Regarding `Nc1ncc(-c2cnn([C@H]3CC[C@H](O)CC3)c2)c2cc(-c3cccc4ncccc34)oc12` [Example 235, trans-4-{4-[7-amino-2-(quinolin-5-yl)furo[2,3-c]pyridin-4-yl]-1H-pyrazol-1-yl}cyclohexanol], the pIC50 is 5.00 to 6.00.

On to `CS(=O)(=O)Nc1cccc(-c2cc3c(-c4cnn(C5CCNCC5)c4)cnc(N)c3o2)c1` [Example 23, N-(3-{7-amino-4-[1-(piperidin-4-yl)-1H-pyrazol-4-yl]furo[2,3-c]pyridine-2-yl}phenyl)methanesulfonamide], for which the pIC50 is 5.00 to 6.00.

`CC(=O)N1CCC(n2cc(-c3cnc(N)c4oc(-c5ccc(-c6ccn[nH]6)cc5)cc34)cn2)CC1` [Example 128, 1-[4-(4-{7-amino-2-[4-(1H-pyrazol-5-yl)phenyl]furo[2,3-c]pyridin-4-yl}-1H-pyrazol-1-yl)piperidin-1-yl]ethanone]: the pIC50 was 5.00 to 6.00.

As for `Nc1ncc(-c2cnn([C@H]3CC[C@H](O)CC3)c2)c2cc(-c3cccc4ccsc34)oc12` [Example 232, trans-4-{4-[7-amino-2-(1-benzothiophen-7-yl)furo[2,3-c]pyridin-4-yl]-1H-pyrazol-1-yl}cyclohexanol diformate salt], the pIC50 is 6.00 to 7.00.

On to `Cc1c(-c2cccc3ccsc23)oc2c(N)ncc(-c3cnn(C4CCNCC4)c3)c12` [Example 10, 2-(1-benzothiophen-7-yl)-3-methyl-4-[1-(piperidin-4-yl)-1H-pyrazol-4-yl]furo[2,3-c]pyridin-7-amine hydrochloride], for which the pIC50 was 5.00 to 6.00.

With `Nc1ncc(-c2cnn(C3CCNCC3)c2)c2cc(-c3ccccc3)oc12` [Example 2, 2-phenyl-4-[1-(piperidin-4-yl)-1H-pyrazol-4-yl]furo[2,3-c]pyridin-7-amine], the pIC50 was 5.00 to 6.00.

Turning to `CC(=O)N1CCC(n2cc(-c3cnc(N)c4oc(-c5ccc(N)nc5)cc34)cn2)CC1` [Example 147, 1-(4-{4-[7-amino-2-(6-aminopyridin-3-yl)furo[2,3-c]pyridin-4-yl]-1H-pyrazol-1-yl}piperidin-1-yl)ethanone], the pIC50 was 6.00 to 7.00.

As for `Nc1ncc(-c2cnn(C3CCN(C(=O)Nc4cccc(Cc5ccccc5)c4)CC3)c2)c2cc(-c3cccc4cnsc34)oc12` [Example 339, 4-[4-(7-amino-2-benzo[d]isothiazol-7-yl-furo[2,3-c]pyridin-4-yl)-pyrazol-1-yl]-piperidine-1-carboxylic acid (3-benzyl-phenyl)-amide], the pIC50 is 5.00 to 6.00.

For `Nc1ncc(-c2cnn(C3CCNCC3)c2)c2c(Cl)c(-c3ccc4[nH]ncc4c3)oc12` [Example 399, 3-chloro-2-(1H-indazol-5-yl)-4-[1-(piperidin-4-yl)-1H-pyrazol-4-yl]furo[2,3-c]pyridin-7-amine hydrochloride], the pIC50 was 5.00 to 6.00.

On to `CC(=O)N1CCC(n2cc(-c3cnc(N)c4oc(-c5cccc(OC(F)(F)F)c5)cc34)cn2)CC1` [Example 163, 1-[4-(4-{7-amino-2-[3-(trifluoromethoxy)phenyl]furo[2,3-c]pyridin-4-yl}-1H-pyrazol-1-yl)piperidin-1-yl]ethanone], for which the pIC50 was 5.00 to 6.00.

As for `CC(=O)N1CCC(n2cc(-c3cnc(N)c4oc(-c5csc6c(=O)[nH]ccc56)cc34)cn2)CC1` [Example 257, 3-{4-[1-(1-acetylpiperidin-4-yl)-1H-pyrazol-4-yl]-7-aminofuro[2,3-c]pyridin-2-yl}thieno[2,3-c]pyridin-7(6H)-one trifluoroacetic Acid Salt], the pIC50 is 5.00 to 6.00.

With `Nc1ncc(-c2cnn(CC(O)CO)c2)c2cc(-c3cccc4cnccc34)oc12` (stereo not shown) [Example 66, 3-{4-[7-amino-2-(isoquinolin-5-yl)furo[2,3-c]pyridin-4-yl]-1H-pyrazol-1-yl}propane-1,2-diol], the pIC50 is 5.00 to 6.00.

As for `CC(=O)N1CCC(n2cc(-c3cnc(N)c4oc(-c5cccc(OCc6ccccc6)c5)cc34)cn2)CC1` [Example 164, 1-[4-(4-{7-amino-2-[3-(benzyloxy)phenyl]furo[2,3-c]pyridin-4-yl}-1H-pyrazol-1-yl)piperidin-1-yl]ethanone], the negative-log IC50 (pIC50) is under 5.00.

By pIC50 is commonly meant −log10 of the IC50, conventionally taken in molar units.
